Targets include EGFR(S752-I759del) (Homo sapiens, UniProt P00533, DEL752-759); CLK4 (Homo sapiens, UniProt Q9HAZ1); FES (Homo sapiens, UniProt P07332); CAMKK2 (Homo sapiens, UniProt Q96RR4); KIT(L576P) (Homo sapiens, UniProt P10721, L576P); PAK4 (Homo sapiens, UniProt O96013); NEK11 (Homo sapiens, UniProt Q8NG66); MAP3K2 (Homo sapiens, UniProt Q9Y2U5); CDK8 (Homo sapiens, UniProt P49336); DDR1 (Homo sapiens, UniProt Q08345); RAF1 (Homo sapiens, UniProt P04049); FGFR3(G697C) (Homo sapiens, UniProt P22607, G697C); CDK7 (Homo sapiens, UniProt P50613); CSNK2A1 (Homo sapiens, UniProt P68400); CAMK2B (Homo sapiens, UniProt Q13554); BMPR1A (Homo sapiens, UniProt P36894); MYLK4 (Homo sapiens, UniProt Q86YV6).

Common to all, as to assay: biochemical
Common to all, as to parameters: KINOMEscan scanMAX competition binding, DNA-tagged kinases, qPCR read-out, percent control at 300 nM

Another test has as its target T1, NDR1 (Homo sapiens, UniProt Q15208).
T1 construct: gene STK38

The target in the next test is T2, PCTK2 (Homo sapiens, UniProt Q00537).
T2 construct: gene CDK17

The target in a further test is T3, NIM1 (Homo sapiens, UniProt Q8IY84).
T3 construct: gene NIM1K
T3 sequence (Q8IY84 whole entry): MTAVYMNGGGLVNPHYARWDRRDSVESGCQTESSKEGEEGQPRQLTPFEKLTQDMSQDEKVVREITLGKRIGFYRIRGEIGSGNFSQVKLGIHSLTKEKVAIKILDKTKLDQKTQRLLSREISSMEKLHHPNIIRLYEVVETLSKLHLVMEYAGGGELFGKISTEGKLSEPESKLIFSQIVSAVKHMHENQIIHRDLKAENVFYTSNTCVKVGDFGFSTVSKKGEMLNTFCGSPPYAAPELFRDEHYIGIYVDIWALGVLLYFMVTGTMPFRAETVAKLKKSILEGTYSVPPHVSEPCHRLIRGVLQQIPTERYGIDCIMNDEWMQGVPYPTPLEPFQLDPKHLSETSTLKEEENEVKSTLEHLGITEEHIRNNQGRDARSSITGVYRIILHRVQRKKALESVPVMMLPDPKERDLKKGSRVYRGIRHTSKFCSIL

In the next test the target is T4, ASK2 (Homo sapiens, UniProt O95382).
T4 construct: gene MAP3K6
T4 sequence (O95382 whole entry): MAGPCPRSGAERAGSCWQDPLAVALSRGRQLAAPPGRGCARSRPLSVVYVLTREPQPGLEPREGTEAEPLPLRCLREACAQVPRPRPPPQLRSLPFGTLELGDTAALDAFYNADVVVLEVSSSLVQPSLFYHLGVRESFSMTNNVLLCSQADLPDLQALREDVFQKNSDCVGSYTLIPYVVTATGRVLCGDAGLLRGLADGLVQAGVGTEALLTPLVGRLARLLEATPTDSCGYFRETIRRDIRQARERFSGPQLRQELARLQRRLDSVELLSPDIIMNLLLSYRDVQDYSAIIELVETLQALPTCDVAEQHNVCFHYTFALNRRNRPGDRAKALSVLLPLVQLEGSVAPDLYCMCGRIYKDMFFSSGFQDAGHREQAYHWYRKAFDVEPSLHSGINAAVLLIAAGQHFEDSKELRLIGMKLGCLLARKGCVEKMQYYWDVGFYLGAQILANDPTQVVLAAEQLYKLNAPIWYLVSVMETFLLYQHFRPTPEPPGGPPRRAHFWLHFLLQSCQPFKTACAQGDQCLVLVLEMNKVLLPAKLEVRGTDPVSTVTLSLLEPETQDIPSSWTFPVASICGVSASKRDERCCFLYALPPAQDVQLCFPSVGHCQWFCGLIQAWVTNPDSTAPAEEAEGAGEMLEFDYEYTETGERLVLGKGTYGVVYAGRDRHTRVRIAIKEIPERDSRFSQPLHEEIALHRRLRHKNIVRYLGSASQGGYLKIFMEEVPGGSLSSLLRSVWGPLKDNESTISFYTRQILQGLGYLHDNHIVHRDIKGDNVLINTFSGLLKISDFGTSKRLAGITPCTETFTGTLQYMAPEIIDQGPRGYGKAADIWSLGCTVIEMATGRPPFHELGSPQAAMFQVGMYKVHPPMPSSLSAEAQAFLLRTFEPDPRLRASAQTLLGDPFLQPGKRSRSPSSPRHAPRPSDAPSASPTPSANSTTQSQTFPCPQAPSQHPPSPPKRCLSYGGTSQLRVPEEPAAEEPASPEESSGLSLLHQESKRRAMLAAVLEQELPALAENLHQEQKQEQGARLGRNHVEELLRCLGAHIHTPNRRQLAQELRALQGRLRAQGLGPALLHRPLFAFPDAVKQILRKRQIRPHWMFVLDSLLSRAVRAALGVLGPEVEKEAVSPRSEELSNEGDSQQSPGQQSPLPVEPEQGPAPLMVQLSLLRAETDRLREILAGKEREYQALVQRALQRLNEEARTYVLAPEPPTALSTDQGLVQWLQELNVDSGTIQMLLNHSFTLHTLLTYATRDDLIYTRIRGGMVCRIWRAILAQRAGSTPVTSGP

Test [1] concerns the target T5, RPS6KA4(Kin.Dom.1-N-terminal) (Homo sapiens, UniProt O75676).
T5 construct: Kin.Dom.1-N-terminal

The next test has as its target T6, MKK7 (Homo sapiens, UniProt O14733).
T6 construct: gene MAP2K7

Setting [2] is: read-out: Percent control / Tirabrutinib.
Where [3] appears, read: read-out: Percent control / Acalabrutinib.
Where [4] appears, read: read-out: Percent control / Ibrutinib.
Setting [5] is: read-out: Percent control / Zanubrutinib.

Like-named read-outs stand apart in the source and are kept apart here.

Sequence of CSNK2A1 (P68400 whole entry): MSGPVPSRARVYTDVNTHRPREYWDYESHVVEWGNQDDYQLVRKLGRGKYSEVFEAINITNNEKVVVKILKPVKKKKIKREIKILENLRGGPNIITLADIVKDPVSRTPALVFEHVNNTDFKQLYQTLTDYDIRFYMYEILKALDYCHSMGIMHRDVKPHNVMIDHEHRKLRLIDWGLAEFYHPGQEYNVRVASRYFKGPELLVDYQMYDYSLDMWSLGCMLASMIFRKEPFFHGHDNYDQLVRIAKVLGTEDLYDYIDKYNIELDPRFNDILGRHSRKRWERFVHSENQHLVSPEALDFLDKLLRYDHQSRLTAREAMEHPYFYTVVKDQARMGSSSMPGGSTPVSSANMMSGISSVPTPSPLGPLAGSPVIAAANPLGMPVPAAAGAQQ
Sequence of RAF1 (P04049 whole entry): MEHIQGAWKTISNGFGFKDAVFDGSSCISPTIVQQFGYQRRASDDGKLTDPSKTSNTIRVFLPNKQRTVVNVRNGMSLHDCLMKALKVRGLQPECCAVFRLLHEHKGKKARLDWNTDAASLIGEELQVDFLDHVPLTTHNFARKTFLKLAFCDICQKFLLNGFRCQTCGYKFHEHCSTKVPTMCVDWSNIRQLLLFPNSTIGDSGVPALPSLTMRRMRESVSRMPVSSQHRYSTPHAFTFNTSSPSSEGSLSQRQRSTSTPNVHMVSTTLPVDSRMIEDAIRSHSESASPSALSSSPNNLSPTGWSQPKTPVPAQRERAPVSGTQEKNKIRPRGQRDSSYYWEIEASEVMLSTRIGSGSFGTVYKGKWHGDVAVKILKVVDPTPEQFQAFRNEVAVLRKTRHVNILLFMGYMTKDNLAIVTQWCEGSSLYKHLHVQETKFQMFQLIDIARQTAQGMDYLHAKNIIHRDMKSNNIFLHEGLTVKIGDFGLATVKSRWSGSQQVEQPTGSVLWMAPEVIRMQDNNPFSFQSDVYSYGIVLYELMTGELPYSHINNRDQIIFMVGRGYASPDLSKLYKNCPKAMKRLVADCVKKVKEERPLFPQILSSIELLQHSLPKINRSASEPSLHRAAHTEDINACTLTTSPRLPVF
Sequence of CDK8 (P49336 whole entry): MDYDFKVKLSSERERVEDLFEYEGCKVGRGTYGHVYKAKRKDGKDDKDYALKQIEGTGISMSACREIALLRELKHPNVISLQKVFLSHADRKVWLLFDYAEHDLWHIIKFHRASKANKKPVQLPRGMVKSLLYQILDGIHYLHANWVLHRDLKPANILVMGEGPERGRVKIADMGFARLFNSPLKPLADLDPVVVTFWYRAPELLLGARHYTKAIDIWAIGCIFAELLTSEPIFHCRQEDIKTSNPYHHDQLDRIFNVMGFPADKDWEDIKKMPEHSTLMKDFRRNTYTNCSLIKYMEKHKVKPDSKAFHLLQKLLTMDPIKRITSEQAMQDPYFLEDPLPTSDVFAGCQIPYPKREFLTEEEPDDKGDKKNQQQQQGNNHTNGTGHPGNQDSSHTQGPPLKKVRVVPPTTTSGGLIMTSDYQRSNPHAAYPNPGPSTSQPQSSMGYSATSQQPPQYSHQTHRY
Sequence of PAK4 (O96013 whole entry): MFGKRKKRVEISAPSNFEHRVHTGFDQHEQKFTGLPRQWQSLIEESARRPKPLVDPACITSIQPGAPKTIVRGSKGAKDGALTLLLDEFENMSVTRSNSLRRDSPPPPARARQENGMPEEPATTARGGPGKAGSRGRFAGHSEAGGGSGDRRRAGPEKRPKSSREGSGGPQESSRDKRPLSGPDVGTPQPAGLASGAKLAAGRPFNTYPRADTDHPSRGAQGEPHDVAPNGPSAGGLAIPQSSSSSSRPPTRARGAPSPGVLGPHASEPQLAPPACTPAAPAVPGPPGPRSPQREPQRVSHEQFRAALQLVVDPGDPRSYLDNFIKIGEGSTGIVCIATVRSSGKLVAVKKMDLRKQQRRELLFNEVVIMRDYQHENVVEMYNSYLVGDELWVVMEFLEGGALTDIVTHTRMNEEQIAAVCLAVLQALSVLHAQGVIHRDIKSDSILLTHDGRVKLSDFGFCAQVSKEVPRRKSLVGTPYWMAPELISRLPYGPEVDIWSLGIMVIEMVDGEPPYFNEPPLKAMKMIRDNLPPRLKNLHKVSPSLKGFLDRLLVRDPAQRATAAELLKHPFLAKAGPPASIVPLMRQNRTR
Sequence of MYLK4 (Q86YV6 whole entry): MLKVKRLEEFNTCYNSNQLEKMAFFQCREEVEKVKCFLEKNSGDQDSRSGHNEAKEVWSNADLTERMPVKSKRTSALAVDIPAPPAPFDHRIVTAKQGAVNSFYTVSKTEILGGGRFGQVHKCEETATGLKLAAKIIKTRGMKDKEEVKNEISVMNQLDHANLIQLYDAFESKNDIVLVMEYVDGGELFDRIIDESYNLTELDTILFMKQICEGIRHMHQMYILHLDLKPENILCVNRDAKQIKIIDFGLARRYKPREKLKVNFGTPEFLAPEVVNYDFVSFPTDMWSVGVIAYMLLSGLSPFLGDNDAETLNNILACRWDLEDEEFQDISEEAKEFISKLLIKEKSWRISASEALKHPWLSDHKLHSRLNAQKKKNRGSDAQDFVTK
T1 sequence (Q15208 whole entry): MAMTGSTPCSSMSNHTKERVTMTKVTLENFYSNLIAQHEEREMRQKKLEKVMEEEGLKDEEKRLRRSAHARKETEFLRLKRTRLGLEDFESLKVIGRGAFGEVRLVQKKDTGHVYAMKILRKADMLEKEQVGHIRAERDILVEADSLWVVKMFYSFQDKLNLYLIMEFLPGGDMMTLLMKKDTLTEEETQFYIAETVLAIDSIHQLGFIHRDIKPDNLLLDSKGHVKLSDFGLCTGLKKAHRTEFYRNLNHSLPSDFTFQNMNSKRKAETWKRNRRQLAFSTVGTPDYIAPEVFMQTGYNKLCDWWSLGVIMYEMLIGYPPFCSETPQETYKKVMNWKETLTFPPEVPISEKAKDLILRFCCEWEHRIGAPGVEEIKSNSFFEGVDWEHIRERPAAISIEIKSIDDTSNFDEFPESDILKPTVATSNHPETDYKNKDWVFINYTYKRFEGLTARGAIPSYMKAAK
Sequence of CDK7 (P50613 whole entry): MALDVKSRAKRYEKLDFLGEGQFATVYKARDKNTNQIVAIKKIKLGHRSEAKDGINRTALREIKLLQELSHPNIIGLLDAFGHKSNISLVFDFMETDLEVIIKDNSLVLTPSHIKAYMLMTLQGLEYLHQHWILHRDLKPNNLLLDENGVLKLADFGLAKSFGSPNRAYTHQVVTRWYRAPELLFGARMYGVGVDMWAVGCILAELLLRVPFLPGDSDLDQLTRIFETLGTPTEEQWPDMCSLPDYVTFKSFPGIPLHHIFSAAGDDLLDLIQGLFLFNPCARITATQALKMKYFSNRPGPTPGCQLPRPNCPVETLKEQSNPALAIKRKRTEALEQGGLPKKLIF

With `CC#CC(=O)N1CC[C@@H](n2c(=O)n(-c3ccc(Oc4ccccc4)cc3)c3c(N)ncnc32)C1` [Tirabrutinib], the remaining binding at 0.3 µM at EGFR(S752-I759del) (setting [2]) came out at 96%; on CLK4 (setting [2]) it was 82%.
On to `CC#CC(=O)N1CCC[C@H]1c1nc(-c2ccc(C(=O)Nc3ccccn3)cc2)c2c(N)nccn12` [Acalabrutinib], for which the remaining binding at 0.3 µM is 90% on FES (setting [3]); 97% at CAMKK2 (setting [3]); 86% on KIT(L576P) (setting [3]); 97% at EGFR(S752-I759del) (setting [3]); 93% on PAK4 (setting [3]); 97% at NEK11 (setting [3]). Also, the remaining binding at 0.3 µM amounted to 97% on NDR1 (setting [3]); 97% on PCTK2 (setting [3]); 97% at MAP3K2 (setting [3]); 93% on CDK8 (setting [3]); 86% at DDR1 (setting [3]); 99% at NIM1 (setting [3]). The remaining binding at 0.3 µM at RAF1 (setting [3]) was 75%; on ASK2 (setting [3]) it was 87%; at FGFR3(G697C) (setting [3]), 79%; at CDK7 (setting [3]), 68%; at CSNK2A1 (setting [3]), 99%.
As to `C=CC(=O)N1CCC[C@@H](n2nc(-c3ccc(Oc4ccccc4)cc3)c3c(N)ncnc32)C1` [Ibrutinib], the remaining binding at 0.3 µM is 87% in test [1] (setting [4]); 90% on CAMK2B (setting [4]); 72% at KIT(L576P) (setting [4]); 8.1% at MKK7 (setting [4]); 99% at BMPR1A (setting [4]); 94% at MYLK4 (setting [4]). Also, the remaining binding at 0.3 µM was determined as 77% on FGFR3(G697C) (setting [4]) and 90% on CSNK2A1 (setting [4]).
Turning to `C=CC(=O)N1CCC([C@@H]2CCNc3c(C(N)=O)c(-c4ccc(Oc5ccccc5)cc4)nn32)CC1` [Zanubrutinib], the remaining binding at 0.3 µM in [1] (setting [5]) amounted to 100%; at FES (setting [5]), 100%; at CAMKK2 (setting [5]) it was 87%; at CAMK2B (setting [5]), 68%; at MKK7 (setting [5]), 80%; on PAK4 (setting [5]), 85%. In addition, the remaining binding at 0.3 µM stood at 98% at NEK11 (setting [5]); 97% at NDR1 (setting [5]); 82% on PCTK2 (setting [5]); 85% at MAP3K2 (setting [5]); 100% at CDK8 (setting [5]); 90% at BMPR1A (setting [5]). Also, the remaining binding at 0.3 µM at DDR1 (setting [5]) was 100%; at MYLK4 (setting [5]) it was 96%; at NIM1 (setting [5]), 97%; at RAF1 (setting [5]) it was 88%; on ASK2 (setting [5]) it was 55%; on CDK7 (setting [5]), 100%. For the same compound, the remaining binding at 0.3 µM on CLK4 (setting [5]) was found to be 99%.
